# Publication PMC4999862, “Site-specific Isopeptide Bridge Tethering of Chimeric gp41 N-terminal Heptad Repeat Helical Trimers for the Treatment of HIV-1 Infection” (Scientific Reports, 2016)
# Like-named read-outs stand apart in the source and are kept apart here. Bridge positions count the residues as written; N and C are the ends. I, II: the chains in the order shown.
# Experiments:
# [1] = test system: HIV-1 BaL (subtypes B, R5)
# Procedure: (§1) Briefly, 1 × 10^4 MT-2 cells were infected with an HIV-1 strain (100 times the half-maximal tissue culture infective dose) in 200 μL of culture medium with or without the serially diluted test compounds overnight. Assay plates were incubated for 72 h, after which 100 μL of culture supernatant was collected from each well and assayed for p24 antigen using ELISA as described previously. The EC50 value of each test compound was calculated using Calcusyn software.
# [2] = test system: HIV-1 IIIB (subtypes B, X4)
# Procedure: as §1
# [3] = test system: HIV-1 Env-mediated cell-cell fusion (HL2/3 effector cells, TZM-bl target cells); details: for EC50: read-out: EC50 (nM) for cell-cell fusion, HL2/3 effector + TZM-bl target cells, 6 h at 37 °C, luciferase read-out, mean ± SD of three independent experiments
# Procedure: The inhibitory activities of these peptides on HIV-1 Env-mediated cell-cell fusion were determined as described previously. Effector cells were HL2/3 cells, which stably express HIV Gag, Env, Tat, Rev, and Nef proteins at the cell surface (contributed by Drs. Barbara Felber and George Pavlakis). TZM-bl cells, which express high levels of CD4 and coreceptors, were used as target cells (contributed by Drs. John C. Kappes and Xiaoyun Wu). HL2/3 cells and TZM-b1 cells were obtained from the NIH AIDS Reference and Reagent Program. TZM-bl cells (2.5 × 10^4/well) were plated in a 96-well plate (Corning Costar) and cultured overnight at 37 °C in 5% CO2. Thereafter, serially diluted inhibitors were added (20 μL/well), followed by the addition of HL2/3 cells (7.5 × 10^4/well). After incubation for 6 h at 37 °C in 5% CO2, fusion efficiency was determined by measuring the luciferase activity using the Luciferase Assay System (Promega, Madison, WI) on a SpectraMax M5 plate reader (Molecular Devices, Sunnyvale, CA).
# [4] = in vitro; type: cell-based; details: human; uninfected MT-2 cells, XTT assay; read-out: CC50 (half maximal cytotoxic concentration)
# Procedure: The cytotoxic effect of the compounds on MT-2 cells was determined using the XTT assay as described previously.
# [5] = test system: HIV-1NL4-3(D36G); details: read-out: EC50 against NL4-3 D36G; T20-sensitive strain; MT-2 cells, p24 ELISA; mean ± SD of three independent experiments
# Procedure: as §1
# [6] = test system: NL4-3 mutant (36G)N42T/N43K; details: read-out: EC50 against NL4-3 (36G)N42T/N43K; T20-resistant strain; MT-2 cells, p24 ELISA; mean ± SD of three independent experiments
# Procedure: as §1
# [7] = test system: NL4-3 mutant (36G)V38A/N42D; details: read-out: EC50 against NL4-3 (36G)V38A/N42D; T20-resistant strain; MT-2 cells, p24 ELISA; mean ± SD of three independent experiments
# Procedure: as §1
# [8] = test system: NL4-3 mutant (36G)V38A/N42T; details: read-out: EC50 against NL4-3 (36G)V38A/N42T; T20-resistant strain; MT-2 cells, p24 ELISA; mean ± SD of three independent experiments
# Procedure: as §1
# [9] = test system: NL4-3 mutant (36G)V38A; details: read-out: EC50 against NL4-3 (36G)V38A; T20-resistant strain; MT-2 cells, p24 ELISA; mean ± SD of three independent experiments
# Procedure: as §1
# [10] = test system: NL4-3 mutant (36G)V38E/N42S; details: read-out: EC50 against NL4-3 (36G)V38E/N42S; T20-resistant strain; MT-2 cells, p24 ELISA; mean ± SD of three independent experiments
# Procedure: as §1
# [11] = test system: T20-sensitive and -resistant HIV-1 NL4-3 strains; details: read-out: EC50 values against both T20-sensitive and -resistant strains; range over the six NL4-3 strains of Table 2
# Procedure: as §1
# [12] = Metabolic stability in liver homogenate; type: in vitro ADME; details: rat liver homogenate, 20 μM, reversed-phase HPLC, UV 210 nm
# Procedure: (§2) Three male SD rats weighing approximately 200 g each were obtained from the Animal Center of Beijing Institute of Pharmacology & Toxicology and were used for the metabolic stability assay. Animals were treated in accordance with the Animal Welfare Act and the “Guide for the Care and Use of Laboratory Animals” (NIH Publication 86-23, revised 1985). Preparation of Samples.Calibration samples were prepared by mixing various concentrations of each test compound ranging from 4 to 150 μM in H2O with rat plasma or tissue homogenate at a volume ratio of 100 μL:100 μL (Supplementary Figs S5–S7). Each test sample (100 μL) was spiked with 100 μL of acetonitrile containing 0.1% TFA. The mixture was vortexed and centrifuged at 18,000 g for 10 min. Then, the supernatant was transferred to HPLC autosampler vials, and aliquots (10 μL) were injected into the HPLC system. […] The mobile phase was composed of solvent A (water containing 0.1% TFA) and solvent B (70% acetonitrile and 0.1% TFA). […] The HPLC analysis was performed on a Waters X-Bridge C8 column (4.6 × 250 mm, 5 μm, 300 Å) at ambient temperature upon injection of 20 μL of each standard and/or sample to obtain the chromatogram. The only exception was for (IZ14N24N)3 in plasma and kidney homogenate, which was analyzed using a Phenomenex Jupiter C4 column (4.6 × 250 mm, 5 μm, 300 Å).
# [13] = Metabolic stability in kidney homogenate; type: in vitro ADME; details: rat kidney homogenate, 20 μM, reversed-phase HPLC, UV 210 nm
# Procedure: as §2
# [14] = CD spectroscopy and thermal denaturation of chimeric N-trimers; type: physicochemical; details: for Tm (°C): CD thermal denaturation at 222 nm, 15 °C to 90 °C, PBS pH 7.4, 10 μM; for Helicity (%): CD, PBS pH 7.4, 10 μM peptide
# Procedure: All measurements were performed on an MOS-450 system (BioLogic, Claix, France) at a 4.0 nm bandwidth, 0.1 nm resolution, 0.1 cm path length, 4.0 s response time and 50 nm/min scanning speed. The individual N- and C-peptides as well as their equimolar mixtures were prepared in PBS (pH 7.4) at a final concentration of 10 μM and incubated at 37 °C for 30 min. Thermal denaturation was monitored by the ellipticity change at 222 nm by application of a thermal gradient from 15 °C to 90 °C with a 2 °C interval.
# [15] = target: T1, C34 (HIV-1 gp41 CHR peptide) (Human immunodeficiency virus type 1 group M subtype B, UniProt P04578); type: binding; details: CD, equimolar mixture 10 μM in PBS pH 7.4; θ222nm of 33000 for 100 % helicity
# [16] = target: T1, C34 (HIV-1 gp41 CHR peptide); assay: Native-PAGE of N-peptides, C34 and their complexes; type: binding; details: equimolar mixture with C34, 37 °C 30 min, PBS pH 7.2, 12% Tris-glycine gel, Coomassie
# Procedure: Equimolar mixtures of C34 and N-peptides (80 μM in PBS, pH 7.2) were incubated at 37 °C for 30 min. After mixing with 1: 1 Tris-glycine native sample buffer (BioRad, Hercules, CA), the individual N- and C- peptides and the mixture (40 μM in PBS, pH 7.2) were loaded (25 μL in each well) onto 12% Tris-glycine gels. Gel electrophoresis was run under a constant voltage of 120 V at room temperature for 2.5 h. The gel was then stained with Coomassie blue R250.
# [17] = read-out: EC50 (nM) for inhibition HIV-1BaL replication, 100 TCID50, 72 h, p24 ELISA, mean ± SD of three independent experiments
# [18] = read-out: EC50 (nM) for inhibition HIV-1IIIB replication, MT-2 cells, 100 TCID50, 72 h, p24 ELISA, mean ± SD of three independent experiments
# T1 sequence (P04578 628-661): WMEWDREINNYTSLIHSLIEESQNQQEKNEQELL
substance,measurement,setting,value
Enfuvirtide,EC50,"[1]; BaL (subtypes B, R5, 72 h)",25.2 ± 1.9 nM
same,EC50,"[2]; IIIB (subtypes B, X4, 72 h)",4.9 ± 0.6 nM
"I: Ac-EQEAIKKKIEAIEKAIEAQQHLLQLTVWGIKQLQARIL-NH2 / II: Ac-EQEAIKKKIEAIEKAIEAQQHLLQLTVWGIKQLQARIL-NH2 / III: Ac-EQEAIKKKIEAIEKAIEAQQHLLQLTVWGIKQLQARIL-NH2 (amide I:8-III:13, I:13-II:8, II:13-III:8) [(IZ14N24N)3]",EC50,[3],2.79 ± 0.1 nM
same,fold greater cell-cell fusion inhibitory activity than (IZ14N17)3,[3]; relative to (IZ14N17)3,about 8 fold
same,CC50,[4],> 20000 nM
same,EC50,[1]; [17],3.2 ± 0.9 nM
same,EC50,[2]; [18],0.4 ± 0.01 nM
same,EC50,[5],1.3 ± 0.2 nM
same,EC50,[6],3.3 ± 0.1 nM
same,EC50,[7],2.7 ± 0.1 nM
same,EC50,[8],1.3 ± 0.8 nM
same,EC50,[9],0.7 ± 0.1 nM
same,EC50,[10],1.2 ± 0.2 nM
same,EC50,[11],0.7 to 3.3 nM
same,stability in liver homogenate for 24 h,[12],highly stable
same,stability in kidney homogenate for 24 h,[13],highly stable
same,Tm (°C),[14],> 90 °C
same,Helicity (%),[14],100%
same,Helicity (%) of the 6HBs formed between chimeric N-peptides and C34,[15],87%
same,complex formation with C34 in N-PAGE,[16],form a stable complex with C34
"I: Ac-EQEAIKKKIEAIEKLLQLTVWGIKQLQARIL-NH2 / II: Ac-EQEAIKKKIEAIEKLLQLTVWGIKQLQARIL-NH2 / III: Ac-EQEAIKKKIEAIEKLLQLTVWGIKQLQARIL-NH2 (amide I:8-III:13, I:13-II:8, II:13-III:8) [(IZ14N17)3]",EC50,[3],21.9 ± 2.4 nM
same,CC50,[4],7300 ± 1700 nM
same,EC50,[1]; [17],3.3 ± 2 nM
same,EC50,[2]; [18],1.9 ± 1.2 nM
same,Tm (°C),[14],> 90 °C
same,Helicity (%),[14],100%
same,Helicity (%) of the 6HBs formed between chimeric N-peptides and C34,[15],74%
"I: Ac-EQEAIKKKIEAIEKLLQLTVWGIKQLQARILAVERYLK-NH2 / II: Ac-EQEAIKKKIEAIEKLLQLTVWGIKQLQARILAVERYLK-NH2 / III: Ac-EQEAIKKKIEAIEKLLQLTVWGIKQLQARILAVERYLK-NH2 (amide I:8-III:13, I:13-II:8, II:13-III:8) [(IZ14N24C)3]",EC50,[3],6.4 ± 1.6 nM
same,CC50,[4],7700 ± 800 nM
same,EC50,[1]; [17],6.6 ± 0.2 nM
same,EC50,[2]; [18],4 ± 2.3 nM
same,Tm (°C),[14],> 90 °C
same,Helicity (%),[14],100%
same,Helicity (%) of the 6HBs formed between chimeric N-peptides and C34,[15],76%
"I: Ac-IKKEQEAIKKKIEAIEKLLQLTVWGIKQLQARIL-NH2 / II: Ac-IKKEQEAIKKKIEAIEKLLQLTVWGIKQLQARIL-NH2 / III: Ac-IKKEQEAIKKKIEAIEKLLQLTVWGIKQLQARIL-NH2 (amide I:11-II:16, I:16-III:11, II:11-III:16) [(IZ17N17)3]",EC50,[3],46 ± 4.6 nM
same,CC50,[4],4000 ± 300 nM
same,EC50,[1]; [17],9 ± 0.2 nM
same,EC50,[2]; [18],4.1 ± 3.1 nM
same,Tm (°C),[14],> 90 °C
same,Helicity (%),[14],98%
same,Helicity (%) of the 6HBs formed between chimeric N-peptides and C34,[15],70%
"I: Ac-IKKKIEAIEKAIEAQQHLLQLTVWGIKQLQARIL-NH2 / II: Ac-IKKKIEAIEKAIEAQQHLLQLTVWGIKQLQARIL-NH2 / III: Ac-IKKKIEAIEKAIEAQQHLLQLTVWGIKQLQARIL-NH2 (amide I:4-II:9, I:9-III:4, II:4-III:9) [(IZ10N24N)3]",EC50,[3],28.3 ± 4.3 nM
same,CC50,[4],6900 ± 1000 nM
same,EC50,[1]; [17],4.7 ± 0.5 nM
same,EC50,[2]; [18],1.8 ± 0.7 nM
same,Tm (°C),[14],> 90 °C
same,Helicity (%),[14],100%
same,Helicity (%) of the 6HBs formed between chimeric N-peptides and C34,[15],80%
"I: Ac-IKKKIEAIEKLLQLTVWGIKQLQARIL-NH2 / II: Ac-IKKKIEAIEKLLQLTVWGIKQLQARIL-NH2 / III: Ac-IKKKIEAIEKLLQLTVWGIKQLQARIL-NH2 (amide I:4-II:9, I:9-III:4, II:4-III:9) [(IZ10N17)3]",EC50,[3],190 ± 4.6 nM
same,fold less potency than (IZN17R)3 in cell-cell fusion,[3]; relative to (IZN17R)3,17 fold
same,CC50,[4],2000 ± 200 nM
same,EC50,[1]; [17],74.7 ± 6 nM
same,EC50,[2]; [18],59.4 ± 9.1 nM
same,Tm (°C),[14],> 90 °C
same,Helicity (%),[14],75%
same,Helicity (%) of the 6HBs formed between chimeric N-peptides and C34,[15],73%
same,complex formation with C34 in N-PAGE,[16],two bands with nearly the same density
"I: Ac-IKKKIEAIEKLLQLTVWGIKQLQARILAVERYLK-NH2 / II: Ac-IKKKIEAIEKLLQLTVWGIKQLQARILAVERYLK-NH2 / III: Ac-IKKKIEAIEKLLQLTVWGIKQLQARILAVERYLK-NH2 (amide I:4-II:9, I:9-III:4, II:4-III:9) [(IZ10N24C)3]",EC50,[3],13.8 ± 1.5 nM
same,CC50,[4],2000 ± 400 nM
same,EC50,[1]; [17],11.4 ± 5.5 nM
same,EC50,[2]; [18],4.4 ± 0.4 nM
same,Tm (°C),[14],> 90 °C
same,Helicity (%),[14],100%
same,Helicity (%) of the 6HBs formed between chimeric N-peptides and C34,[15],63%
